Source: US8501446B2 (Vertex Pharmaceuticals Incorporated, priority 2004, dated 2013)

How the values were obtained:
Format in all cases: biochemical
JAK3 = target: T1, JAK3 (Homo sapiens, UniProt P52333); test: JAK3 inhibition assay (standard radioactive enzyme assay); conditions: average Ki if more than one value determined
T1 sequence (P52333 1-1124): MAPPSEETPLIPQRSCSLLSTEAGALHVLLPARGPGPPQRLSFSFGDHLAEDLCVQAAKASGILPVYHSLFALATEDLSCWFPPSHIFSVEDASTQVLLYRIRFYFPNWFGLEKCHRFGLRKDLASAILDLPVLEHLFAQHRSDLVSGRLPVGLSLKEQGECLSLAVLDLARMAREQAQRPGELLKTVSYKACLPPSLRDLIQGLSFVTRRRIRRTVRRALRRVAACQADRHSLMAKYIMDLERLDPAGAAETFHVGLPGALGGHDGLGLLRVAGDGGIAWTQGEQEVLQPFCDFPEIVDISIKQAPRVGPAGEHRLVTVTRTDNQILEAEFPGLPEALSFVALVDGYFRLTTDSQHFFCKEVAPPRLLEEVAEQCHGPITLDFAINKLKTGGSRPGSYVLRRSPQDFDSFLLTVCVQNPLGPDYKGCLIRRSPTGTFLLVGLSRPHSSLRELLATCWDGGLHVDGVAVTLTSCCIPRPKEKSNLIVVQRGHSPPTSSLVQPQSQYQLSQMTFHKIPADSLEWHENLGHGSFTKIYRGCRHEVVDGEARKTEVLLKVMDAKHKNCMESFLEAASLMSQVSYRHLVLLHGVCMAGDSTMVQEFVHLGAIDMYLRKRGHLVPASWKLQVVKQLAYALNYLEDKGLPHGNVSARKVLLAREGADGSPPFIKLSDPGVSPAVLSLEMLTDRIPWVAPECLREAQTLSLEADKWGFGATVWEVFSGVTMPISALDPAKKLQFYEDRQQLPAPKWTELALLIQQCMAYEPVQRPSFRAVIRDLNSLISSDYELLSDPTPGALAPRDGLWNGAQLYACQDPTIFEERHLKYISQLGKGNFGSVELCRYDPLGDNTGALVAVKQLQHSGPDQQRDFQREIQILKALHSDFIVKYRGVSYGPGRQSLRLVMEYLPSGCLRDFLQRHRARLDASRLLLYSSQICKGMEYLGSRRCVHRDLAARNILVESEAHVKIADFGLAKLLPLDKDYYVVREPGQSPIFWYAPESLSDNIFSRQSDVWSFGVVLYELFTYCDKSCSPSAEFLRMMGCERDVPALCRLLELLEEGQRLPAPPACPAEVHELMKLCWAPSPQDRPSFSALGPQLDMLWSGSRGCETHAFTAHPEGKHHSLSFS
Experimental: (§1) Compounds were screened for their ability to inhibit JAK3 using a standard radioactive enzyme assay. 1.5 μL/well of a DMSO stock containing serial dilutions of a compound of the present invention (concentrations ranging from 667 μM to 46 nM) was placed in a 96 well polycarbonate plate. 50 μL per well of kinase buffer (100 mM HEPES (pH 7.4), 10 mM MgCl2, 25 mM NaCl, 1 mM DTT, and 0.01% bovine serum albumin (BSA)) containing 2 μM poly(Glu)4Tyr and 10 μM ATP was also added to the plate. To initiate the reaction, 50 μL kinase buffer containing 2 nM JAK3 enzyme was added. Final ATP concentration was 5 μM [γ-^33P] ATP (200 μCi ^33P ATP/μmol ATP (Perkin Elmer, Cambridge, Mass.). After 20 minutes at room temperature (25° C.), the reaction was stopped by adding 50 μL 20% trichloroacetic acid (TCA)/0.4 mM ATP to each well. The entire content of each well was then transferred to a 96 well glass fiber filter plate using a TomTek Cell Harvester. After washing, 60 μL scintillation fluid was added and ^33P incorporation detected using a Perkin Elmer TopCount. After removing mean background values for all of the data points the data was fit using Prism software to obtain a Ki(app). Inhibition of JAK2 was measured as above except that final poly(Glu)4Tyr concentration was 15 μM and final ATP concentration was 12 μM.

[1] = target: T2, full length Aurora-A (AA 1-403) (Homo sapiens, UniProt O14965); test: Aurora-A inhibition assay, standard coupled enzyme system; conditions: average Ki if more than one value determined
T2 construct: full length Aurora-A (AA 1-403)
T2 sequence (O14965 1-403): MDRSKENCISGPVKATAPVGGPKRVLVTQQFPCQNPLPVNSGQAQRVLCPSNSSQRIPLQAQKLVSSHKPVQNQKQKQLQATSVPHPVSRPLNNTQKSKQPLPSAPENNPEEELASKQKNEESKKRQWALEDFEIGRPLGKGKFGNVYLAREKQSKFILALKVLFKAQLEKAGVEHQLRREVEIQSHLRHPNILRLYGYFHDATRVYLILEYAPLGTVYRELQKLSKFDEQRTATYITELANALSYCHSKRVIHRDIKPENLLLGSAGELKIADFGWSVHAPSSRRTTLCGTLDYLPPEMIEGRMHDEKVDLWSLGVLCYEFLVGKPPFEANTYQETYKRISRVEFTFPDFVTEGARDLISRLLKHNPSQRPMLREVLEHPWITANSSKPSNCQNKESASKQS

JAK2 = JAK2 (Homo sapiens, UniProt O60674); test: JAK2 inhibition assay (radioactive enzyme assay, as for JAK3); conditions: average Ki if more than one value determined
JAK2, sequence (O60674 whole entry, species assumed): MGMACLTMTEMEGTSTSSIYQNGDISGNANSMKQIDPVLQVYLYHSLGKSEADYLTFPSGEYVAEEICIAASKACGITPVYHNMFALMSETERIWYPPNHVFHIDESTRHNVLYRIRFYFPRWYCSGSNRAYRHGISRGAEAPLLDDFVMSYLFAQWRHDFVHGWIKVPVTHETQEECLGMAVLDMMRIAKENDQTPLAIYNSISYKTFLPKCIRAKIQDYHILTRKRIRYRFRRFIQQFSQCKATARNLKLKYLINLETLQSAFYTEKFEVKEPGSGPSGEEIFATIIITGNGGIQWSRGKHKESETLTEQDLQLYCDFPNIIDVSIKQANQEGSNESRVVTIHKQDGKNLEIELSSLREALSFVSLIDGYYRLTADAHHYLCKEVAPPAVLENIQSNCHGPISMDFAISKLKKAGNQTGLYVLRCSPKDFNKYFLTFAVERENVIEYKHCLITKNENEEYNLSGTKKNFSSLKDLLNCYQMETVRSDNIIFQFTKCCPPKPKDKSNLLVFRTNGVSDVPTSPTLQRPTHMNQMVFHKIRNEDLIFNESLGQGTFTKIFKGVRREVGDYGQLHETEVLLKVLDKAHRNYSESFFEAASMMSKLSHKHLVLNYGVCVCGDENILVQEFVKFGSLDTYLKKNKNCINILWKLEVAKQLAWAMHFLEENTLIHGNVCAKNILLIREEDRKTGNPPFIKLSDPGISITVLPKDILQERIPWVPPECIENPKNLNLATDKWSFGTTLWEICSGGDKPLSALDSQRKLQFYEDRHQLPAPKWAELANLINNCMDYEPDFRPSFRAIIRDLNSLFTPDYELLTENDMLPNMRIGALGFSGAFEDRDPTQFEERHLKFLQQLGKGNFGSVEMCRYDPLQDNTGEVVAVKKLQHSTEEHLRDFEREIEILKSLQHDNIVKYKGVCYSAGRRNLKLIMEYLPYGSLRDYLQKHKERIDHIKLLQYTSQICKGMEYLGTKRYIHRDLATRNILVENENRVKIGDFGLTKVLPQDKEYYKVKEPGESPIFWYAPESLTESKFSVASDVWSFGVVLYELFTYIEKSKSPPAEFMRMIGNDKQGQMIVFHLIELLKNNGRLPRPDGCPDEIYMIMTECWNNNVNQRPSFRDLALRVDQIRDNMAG
Experimental: as §1

ROCK I (AA 6-553) = target: T3, ROCK I (AA 6-553) (Homo sapiens, UniProt Q13464); test: ROCK inhibition assay, standard coupled enzyme system ("Enzyme"); conditions: enzyme-linked assay
T3 construct: ROCK I (AA 6-553)
T3 sequence (Q13464 6-553, species assumed): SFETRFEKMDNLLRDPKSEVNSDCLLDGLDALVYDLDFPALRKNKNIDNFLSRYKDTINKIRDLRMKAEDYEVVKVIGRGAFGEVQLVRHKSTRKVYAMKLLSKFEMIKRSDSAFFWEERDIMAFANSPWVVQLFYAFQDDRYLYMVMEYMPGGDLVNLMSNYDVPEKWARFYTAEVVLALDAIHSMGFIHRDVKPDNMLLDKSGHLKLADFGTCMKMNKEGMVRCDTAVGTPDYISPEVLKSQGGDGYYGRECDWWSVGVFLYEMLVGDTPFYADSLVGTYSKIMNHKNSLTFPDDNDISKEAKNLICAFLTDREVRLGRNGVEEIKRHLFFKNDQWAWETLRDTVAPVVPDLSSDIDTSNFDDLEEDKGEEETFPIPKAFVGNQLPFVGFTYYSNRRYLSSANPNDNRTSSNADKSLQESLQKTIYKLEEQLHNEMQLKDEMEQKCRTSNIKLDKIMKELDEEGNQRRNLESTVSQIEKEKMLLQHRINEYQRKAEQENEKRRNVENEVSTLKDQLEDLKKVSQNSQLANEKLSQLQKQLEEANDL
In short: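 ROCK I (AA 6-553) at 45 nM and 30 °C with 45 μM ATP and 200 μM peptide, in 100 mM HEPES pH 7.5, 10 mM MgCl2, 25 mM NaCl, 2 mM DTT, 1.5% DMSO. ADP output read by a PK/LDH coupled system: 2.5 mM PEP, 350 μM NADH, 30 μg/ml PK, 10 μg/ml LDH.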

| SMILES | Ki (JAK3) [nM] | Ki [1] [nM] | Ki (JAK2) [nM] | Ki (ROCK I (AA 6-553)) [nM] |
| --- | --- | --- | --- | --- |
| Cc1cnc2[nH]cc(-c3cccc(NCc4ccccc4)n3)c2c1 [Compound 39] | < 500 | < 500 | < 500 | 500 to 5000 |
| CC(=O)N1[C@H](C)CN(c2cccc(-c3c[nH]c4ncc(C)cc34)n2)C[C@@H]1C [Compound 41] | < 500 | < 500 | < 500 | 500 to 5000 |
| O=C(O)c1ccc(-c2c[nH]c3ncc(Cl)cc23)nc1NCc1ccccc1 [Compound 42] | < 500 | < 500 | < 500 | 500 to 5000 |
| CC(=O)N1[C@H](C)CN(c2cccc(-c3c[nH]c4ncc(C(=O)N5CCNCC5)cc34)n2)C[C@@H]1C [Compound 56] | 500 to 5000 | 500 to 5000 | > 5000 | – |
| O[C@H]1Cc2ccccc2[C@H]1Nc1cccc(-c2c[nH]c3ncc(Cl)cc23)n1 [Compound 136] | < 500 | – | < 500 | < 500 |
| O[C@@H]1Cc2ccccc2[C@@H]1Nc1cccc(-c2c[nH]c3ncc(Cl)cc23)n1 [Compound 137] | < 500 | – | < 500 | 500 to 5000 |
| C=CC(=O)Nc1cnc2[nH]cc(-c3cccc(N4CCCN(C(=O)CC#N)CC4)n3)c2c1 [Compound 138] | < 500 | – | < 500 | 500 to 5000 |
| C=CC(=O)Nc1cnc2[nH]cc(-c3cccc(N4CCCN(C(C)=O)CC4)n3)c2c1 [Compound 139] | < 500 | – | < 500 | 500 to 5000 |
| CC(=O)Nc1cnc2[nH]cc(-c3cccc(N4CCCN(C(C)=O)CC4)n3)c2c1 [Compound 140] | < 500 | – | < 500 | 500 to 5000 |
| CCC(=O)Nc1cnc2[nH]cc(-c3cccc(N4CCCN(C(C)=O)CC4)n3)c2c1 [Compound 141] | < 500 | – | < 500 | 500 to 5000 |
| CC(C)Oc1cccc(-c2c[nH]c3ncc(Cl)cc23)c1 [Compound 143] | < 500 | – | 500 to 5000 | 500 to 5000 |
| CN(C)c1cccc(-c2c[nH]c3ncc(Cl)cc23)c1 [Compound 144] | < 500 | – | < 500 | 500 to 5000 |
| Clc1cnc2[nH]cc(-c3cccc(NCc4ccccc4)c3)c2c1 [Compound 145] | < 500 | – | < 500 | 500 to 5000 |
| CC(=O)N1[C@H](C)CN(c2cccc(-c3c[nH]c4ncc(Cl)cc34)c2)C[C@@H]1C [Compound 146] | < 500 | – | < 500 | 500 to 5000 |
| O=C(O)c1cc(NCc2ccccc2)cc(-c2c[nH]c3ncc(Cl)cc23)c1 [Compound 147] | < 500 | – | < 500 | 500 to 5000 |
| Nc1cc(C(=O)O)cc(-c2c[nH]c3ncc(Cl)cc23)c1 [Compound 148] | < 500 | – | 500 to 5000 | < 500 |
| CC(=O)N1CCCN(c2cc(C#N)cc(-c3c[nH]c4ncc(Cl)cc34)n2)CC1 [Compound 149] | < 500 | – | < 500 | 500 to 5000 |
| CC(=O)Nc1cc(-c2c[nH]c3ncc(Cl)cc23)nc(N2C[C@@H](C)N(C(C)=O)[C@@H](C)C2)c1 [Compound 160] | < 500 | – | < 500 | 500 to 5000 |
